One may read the IC50 as the concentration needed to halve the response being measured. Lower therefore signals greater potency in that assay.

The values that follow come from BindingDB's records for doi:10.1016/j.bioorg.2017.04.006 (China Pharmaceutical University, 2017).

In test [1] the target is Lysine-specific histone demethylase 1A (Homo sapiens, UniProt O60341). The test is described as follows: LSD1 Screening Assay. As to conditions: pH 7.5; 25 °C. The protocol: The LSD1 screening biochemical assay was performed by Shanghai ChemPartner Co. Ltd and the detailed protocol was shown as followed. The AlphaLISA assay of LSD1 (BPS Bioscience) was performed in modified Tris buffer (pH 7.5). Briefly, the compoundsin DMSO were transferred to assay plate by Echo 550, followed by pre-incubating with enzyme (final concentration is 5 nM) for 15 min at room temperature. The initiation of reactions were added H3K4me2 peptide solution (final concentration is 100 nM) to the reaction mixtures and then incubated for 60 min at roomtemperature. The reactions were terminated by the addition of the acceptor and donor beads mix (PerkinElmer) and incubated for 60 min at room temperature, and finally read on EnSpire (PerkinElmer) in Alpha Mode.

Test [2] deals with T1, Amine oxidase [flavin-containing] A (Homo sapiens, UniProt P21397).
T1 sequence (P21397 whole entry): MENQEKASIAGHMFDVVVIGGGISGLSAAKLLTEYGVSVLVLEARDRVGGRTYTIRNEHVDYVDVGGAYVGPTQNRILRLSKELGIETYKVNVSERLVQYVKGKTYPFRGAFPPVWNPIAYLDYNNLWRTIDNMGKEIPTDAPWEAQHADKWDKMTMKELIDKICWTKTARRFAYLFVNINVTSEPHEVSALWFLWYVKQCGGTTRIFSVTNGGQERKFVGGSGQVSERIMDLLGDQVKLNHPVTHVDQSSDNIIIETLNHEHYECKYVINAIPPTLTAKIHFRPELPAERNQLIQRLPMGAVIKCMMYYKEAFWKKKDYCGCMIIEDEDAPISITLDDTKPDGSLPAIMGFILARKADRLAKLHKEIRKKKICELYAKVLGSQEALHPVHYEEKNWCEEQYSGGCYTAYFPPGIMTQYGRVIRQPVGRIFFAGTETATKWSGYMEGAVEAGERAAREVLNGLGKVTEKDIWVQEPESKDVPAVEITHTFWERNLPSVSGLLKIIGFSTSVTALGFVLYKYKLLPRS
The experiment in a line: MAO-A and MAO-B Assay. The text has this: (§1) The MAO-A and MAO-B is purchased from Active Motif (Cat#31502, Cat#31503). Biochemical Kit is purchased from Promega (MAO-Glo Assay, V1402). The inhibition of selectivity assay was preformed in light of the manufacturer's protocol.

The target in test [3] is T2, Amine oxidase [flavin-containing] B (Homo sapiens, UniProt P27338).
T2 sequence (P27338 whole entry): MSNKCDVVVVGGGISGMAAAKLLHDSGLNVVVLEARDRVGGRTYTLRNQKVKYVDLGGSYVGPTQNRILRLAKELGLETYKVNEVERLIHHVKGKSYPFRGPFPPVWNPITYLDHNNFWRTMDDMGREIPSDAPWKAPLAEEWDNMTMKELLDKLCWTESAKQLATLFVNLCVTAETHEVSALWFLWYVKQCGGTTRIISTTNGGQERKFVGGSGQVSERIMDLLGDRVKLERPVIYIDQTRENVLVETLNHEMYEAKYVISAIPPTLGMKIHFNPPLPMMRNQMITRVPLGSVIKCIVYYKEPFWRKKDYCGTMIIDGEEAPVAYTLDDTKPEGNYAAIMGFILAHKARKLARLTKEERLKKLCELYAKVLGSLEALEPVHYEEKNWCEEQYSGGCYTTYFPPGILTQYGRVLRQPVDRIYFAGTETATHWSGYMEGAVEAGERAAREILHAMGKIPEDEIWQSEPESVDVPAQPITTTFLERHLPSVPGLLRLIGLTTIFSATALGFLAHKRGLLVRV
The experiment in a line: MAO-A and MAO-B Assay.
Description: as §1

As to `CC(Nc1cc(Cl)ccc1O)C(=O)Nc1cccc(S(=O)(=O)N(C)C)c1` (stereo not drawn), half-maximal inhibition in test [1] (IC50) required 12 µM. Turning to `CN(C)S(=O)(=O)c1cccc(NC(=O)CNc2cc(Cl)ccc2O)c1` [2-((5-Chloro-2-hydroxyphenyl)amino)-N-(3-(N,N-dimethylsulfamoyl)phenyl)-acetamide (7d)], the IC50 in test [1] was determined as 14 µM. With `CN(CC(=O)Nc1cccc(S(=O)(=O)N2CCOCC2)c1)c1cc(Cl)ccc1O` [2-((5-Chloro-2-hydroxyphenyl)(methyl)amino)-N-(3-(morpholinosulfonyl)phe-nyl)acetamide (7b)], the values for the IC50 in test [2], in test [3] and in test [1] were 187 µM, 65.7 µM and 9.5 µM, respectively. As to `CC(Nc1cc(Cl)ccc1O)C(=O)Nc1cccc(S(=O)(=O)N2CCOCC2)c1` (stereo not drawn) [2-((5-Chloro-2-hydroxyphenyl)amino)-N-(3-(morpholinosulfonyl)phenyl)propanamide (7c)], the IC50 in test [1] was found to be 13 µM. As for `C/C(=N\NC(=O)c1cccc(S(=O)(=O)N2CCOCC2)c1)c1cc(Cl)ccc1O` [US8987335, 12], in test [1], the IC50 came out at 0.011 µM.

As to `CN(CC(=O)Nc1cccc(S(=O)(=O)N(C)C)c1)c1cc(Cl)ccc1O` [2-((5-Chloro-2-hydroxyphenyl)(methyl)amino)-N-(3-(N,N-dimethylsulfamoyl)phenyl)acetamide (7e)], the IC50 in test [1] is 13 µM. With `CC(Nc1cc(Cl)ccc1O)C(=O)Nc1cccc(S(=O)(=O)N2CCCCC2)c1` (stereo not drawn) [2-((5-Chloro-2-hydroxyphenyl)amino)-N-(3-(piperidin-1-ylsulfonyl)phenyl)propanamide (7h)], the figures for the IC50 in test [2], in test [3] and in test [1] were 114 µM, 102 µM and 6.9 µM, respectively.

For `CN(CC(=O)Nc1cccc(S(=O)(=O)N2CCCCC2)c1)c1cc(Cl)ccc1O` [2-((5-Chloro-2-hydroxyphenyl)(methyl)amino)-N-(3-(piperidin-1-ylsulfonyl)phenyl)acetamide (7g)], half-maximal inhibition in test [1] (IC50) was put at 11 µM. Regarding `O=C(CNc1cc(Cl)ccc1O)Nc1cccc(S(=O)(=O)N2CCOCC2)c1` [2-((5-Chloro-2-hydroxyphenyl)amino)-N-(3-(morpholinosulfonyl)phenyl)acetamide (7a)], the IC50 in test [1] was found to be 13 µM.
